{"source": "patent US9717727B2", "about": "“Methods of treating and preventing leukemia and other cancers of the blood and bone” (The Trustees of Columbia University in the City of New York, priority 2011, dated 2017)", "key": {"[1]": {"system": "serum serotonin", "assay": "Serum serotonin levels by ELISA, EL4 study (Example 9)", "assay_type": "in vivo, mice", "settings": "leukemic and non-leukemic groups; LP-533401 25 or 200 mg/kg/day oral", "protocol": "Mice were treated orally with LP-533401 (25 or 200 mg per kg of body weight per day) or vehicle. Treatments started 15 days before malignant cell injections in all sets of experiments, and continued for the indicated periods of time. LP-533401 was dissolved in polyethylene glycol (PEG) and 5% dextrose or 2.5% glucose (Sigma), and given daily by oral gavage. Mice treated with vehicle were administered, in the same way as LP533401, a solution of PEG and 5% dextrose or 2.5% glucose, daily, by oral gavage. For measurements of serum serotonin levels, mice were briefly exposed to Isoflurane (Baxter) for 30 seconds and blood was collected by cardiac puncture. Similar volumes of blood were collected from different animals for consistency in the clotting times. Serum collection from all mice was done between 9:00 am and 12:00 pm. Blood was allowed to clot on ice for 5 minutes before centrifugation at maximum speed at 4° C. for 10 minutes. The serum supernatant was removed, snap frozen and stored at −80° C. for further analysis. Serum serotonin levels were quantified by ELISA (Serotonin kit, Fitzgerald) according to manufacturer's instructions."}, "[2]": {"settings": "in vivo; cited from earlier work"}, "[3]": {"system": "WEHI/3B myelomonocytic leukemia cell line", "assay": "WEHI/3B murine model of AML, tumor burden at tissue level (Example 12)", "assay_type": "in vivo, mice", "protocol": "WEHI/3B, a macrophage-like myelomonocytic leukemia cell line established from inbred BALB/c mice, was used. BALB/cJ mice were inoculated with 1×10^6 Wehi-3 cells.\nMice were sacrificed at pre-determined time points as specified before or upon signs of illness. Each animal was weighed before blood was sampled, and visually examined for tumor development. Spleens were isolated and weighed. Spleens and tissue samples from liver were fixed in 10% neutral formalin solution for 48 hours. Osseous samples (thoracic spine, sternum, pelvis, and stifle joint) were decalcified in Decalcifier System I (Leica Microsystems, Inc.) for 48 h after fixation. All tissues were processed by routine methods and embedded in paraffin Sections of 4 or 5 μm were stained with hematoxylin and eosin (H&E) according to standard procedures.\nHistomorphometric analyses were performed on vertebral column specimens collected from 2 months old mice using undecalcified sections using the osteomeasure analysis system (Osteometrics). Lumbar vertebrae were dissected, fixed for 24 hours in 10% formalin, dehydrated in graded ethanol series, and embedded in methyl methacrylate resin according to standard protocols (Chappard et al. (1987); Parfitt et al. (1987)).\nBone formation rate (BFR) was analyzed by the calcein double-labeling method. Calcein (Sigma) was dissolved in calcein buffer (0.15 M NaCl, 2% NaHCO3) and administered by an intraperitoneal injection of 25 μg/g body weight, 6 days and 2 days before sacrificing the animals. In experiments evaluating survival rates of animals, bone formation rate was not calculated due to the unknown time of death. Unstained 4-μm sections were used for BFR measurements.\nFor the analysis of parameters of osteoblast and osteoclast, 4-μm sections were stained with toluidine blue and tartrate-resistant acid phosphatase (TRAP), respectively. Type I collagen content and bone volume over trabecular volume (BV/TV) were analyzed using 7-μm sections by Von Gieson and Von Kossa staining […] respectively in undecalcified sections. Images were taken using a 10× objective on a Leica microscope outfitted with camera. Six to ten animals were analyzed for each group.\nTotal RNA was isolated from tissues or cultured cells using Trizol, according to the manufacturer's protocol (Invitrogen). Total RNA (2 μg) was treated with DNAse I (Invitrogen), and reverse transcribed at 42° C. with SuperScript II (Invitrogen). The expression of all the genes was measured by real-time quantitative PCR with the SYBR Green Master Mix (Bio-Rad) using β actin or 18s as endogenous control.\nBALB/cJ mice purchased from Jackson Laboratory and injected with WEHI/3B, as described in Example 2, were used.\nMice were treated as described in Example 9 and classified as: • Mice with no leukemia treated with a vehicle, i.e., non-leukemic-vehicle-treated (“WT”); • Mice with no leukemia treated with LP-533401, i.e., non-leukemic-LP-533401-treated (“NL-LP”); • Mice with leukemia treated with a vehicle, i.e., leukemic-vehicle-treated (“Leuk-veh”); and • Mice with leukemia treated with LP-533401, i.e., leukemic-LP 533410-treated (“Leuk-LP”).\nAll mice were sacrificed after 2 weeks for the following assessments: • Serum serotonin levels as measured in Example 9; • Body weight as described in Example 2 • Spleen weight as described in Example 2; • Histological analysis of the femur, spleen and liver as described in Example 2; • Trabecular Bone Volume (Bv/TV) as described in Example 3; • and • Gene Expression analysis by PCR as described in Example 3. Results"}, "[4]": {"biological_target": "T1, Tph2 (Homo sapiens, UniProt Q8IWU9)", "T1 sequence (Q8IWU9 1-490)": "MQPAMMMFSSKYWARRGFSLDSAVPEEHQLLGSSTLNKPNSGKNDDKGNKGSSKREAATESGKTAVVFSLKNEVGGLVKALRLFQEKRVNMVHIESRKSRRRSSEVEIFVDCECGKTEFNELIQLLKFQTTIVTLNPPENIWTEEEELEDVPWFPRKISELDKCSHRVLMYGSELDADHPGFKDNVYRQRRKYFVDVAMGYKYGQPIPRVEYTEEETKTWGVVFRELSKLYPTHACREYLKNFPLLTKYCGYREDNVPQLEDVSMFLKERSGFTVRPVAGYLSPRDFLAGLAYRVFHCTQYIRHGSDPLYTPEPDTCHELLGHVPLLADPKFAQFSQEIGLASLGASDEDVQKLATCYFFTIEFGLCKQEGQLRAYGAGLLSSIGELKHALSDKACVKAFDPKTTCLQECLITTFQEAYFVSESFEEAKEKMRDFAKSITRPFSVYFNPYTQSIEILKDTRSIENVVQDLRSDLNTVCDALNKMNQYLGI", "settings": "in vitro; cited from earlier work"}, "[5]": {"settings": "among 14 mice treated (WEHI/3B)"}}}
{"smiles": "Nc1nc(OC(c2ccc(-c3cccc(F)c3)cc2)C(F)(F)F)cc(-c2ccc(C[C@H](N)C(=O)O)cc2)n1", "note": "(stereo partly drawn) [LP-533401]", "values": [{"measurement": "decrease in serum serotonin levels compared to vehicle-treated animals", "setting": "[1]", "value": 30, "unit": "%"}, {"measurement": "crossing of the blood-brain barrier", "setting": "[2]", "value": "did not cross the blood-brain barrier"}, {"measurement": "anemia observed in leukemic mice", "setting": "[3]; WEHI/3B", "value": "inhibited"}, {"measurement": "leukemia infiltration in the liver and spleen", "setting": "[3]; WEHI/3B", "value": "limited leukemia infiltration in the liver and spleen"}, {"measurement": "leukemia-caused decrease in trabecular bone volume, osteoblast numbers and bone formation rate", "setting": "[3]; WEHI/3B", "value": "prevented the decrease"}, {"measurement": "leukemic mice in which megakaryocyte numbers returned to normal", "setting": "[3]; WEHI/3B", "value": 70, "unit": "%"}, {"measurement": "leukemic mice with normal myeloid:erythroid ratio", "setting": "[3]; WEHI/3B", "value": 50, "unit": "%"}, {"measurement": "number of leukemia blasts (histology)", "setting": "[3]; WEHI/3B", "value": "reduced number of leukemia blasts"}, {"measurement": "osteoclast numbers", "setting": "[3]; WEHI/3B", "value": "not affected"}, {"measurement": "mice with less than 5% marrow blasts", "setting": "[3]; [5]", "value": 71, "unit": "%"}, {"measurement": "number of mice with less than 5% marrow blasts", "setting": "[3]; [5]", "value": 10}, {"measurement": "expression of osteoblast differentiating genes (osteocalcin, osterix, Runx2, alkaline phosphatase, collagen 1a1)", "setting": "[3]; femur of leukemic mice (WEHI/3B), PCR", "value": "normalize the expression"}, {"measurement": "cyclin D1 and D2 expression in bone (osteoblast proliferation)", "setting": "[3]; leukemic mice (WEHI/3B)", "value": "increase in cyclin D1 and D2 expression"}, {"measurement": "enlargement of the spleen (spleen weight)", "setting": "[3]; leukemic mice (WEHI/3B)", "value": "alleviated"}, {"measurement": "splenic red pulp", "setting": "[3]; leukemic mice (WEHI/3B)", "value": "normal"}, {"measurement": "animals with a blast percentage of 20% or more in the bone marrow", "setting": "[3]; leukemic mice (WEHI/3B), 2 weeks", "value": 28, "unit": "%"}, {"measurement": "body weight", "setting": "[3]; leukemic vs non-leukemic animals (WEHI/3B)", "value": "weight loss was not observed"}, {"measurement": "inhibition of Tph2 relative to Tph1", "setting": "[4]", "value": "inhibits Tph2 as effectively as Tph1"}]}
